The results in this text go back to patent US10758583B2, “Processed food and pharmaceutical composition having watermelon sprout-derived substances as main ingredients” (KINKI UNIVERSITY, priority 2016, dated 2020).

The subject of series [1] is human T-cell leukemia cell line Jurkat cell. Briefly: Growth of Jurkat cells, live cell count by trypan blue staining. To be noted: for growth inhibitory activity of isolated components on Jurkat cells: 10, 25 and 50 μM, cells counted after 24, 48, 72 hours (FIG. 7); for IC50: Homo sapiens, Jurkat, isolated components, FIG. 7, read-out: IC50 in the inhibition of the growth of the Jurkat cells. It counts as cell-based. How it is done:
A human T-cell leukemia cell line Jurkat cell was obtained from the Independent Administrative Institution RIKEN BioResource Center (Tsukuba-shi, Ibaraki-ken). The cell was cultured in a RPMI 1640 medium (Wako Pure Chemical Industries, Ltd., Osaka-shi, Osaka-fu) containing 10% fetal bovine serum (Thermo Fisher Scientifics, K.K., MA, USA), 100 U/mL penicillin, and 100 μg/mL streptomycin (both from Life Technologies, Carlsbad, Calif., USA) at 37° C. in an environment of 95% air and 5% CO2.
The Jurkat cells were adjusted to 1×10^5 cells/mL and seeded in a 24-well multi-well plate (Thermo Fisher Scientifics, K.K.) by 500 μL per well. […] At 24, 48, and 72 hours after the sample treatment, the cells were stained with trypan blue (Life Technologies) to count live cells using a hemacytometer.
These components were examined for the growth inhibitory effect on the Jurkat cells. The Jurkat cells were treated with each component at final concentrations of 10, 25, and 50 μM and the number of cells was counted after 24, 48, and 72 hours.

In series [2] the test system is human normal lymphoid cell. Briefly: Effect on growth of human normal lymphoid cell (trypan blue count). It counts as cell-based. Particulars: stated with reference to FIG. 8.
A further series concerns Cyclin A. Briefly: Western blot of Cyclin A protein expression in Jurkat cells in S phase. Particulars: Phytol(+) vs Phytol(−), n=5, p<0.01 (FIG. 9). It counts as cell-based, human. From the text: Next, the growth inhibition of the Jurkat cells caused by phytol and lutein was further investigated. As shown in FIG. 6 and FIG. 7, the growth inhibition of the Jurkat cells was caused by the induction of the cell cycle arrest in the S phase during cell division. Thus, it was further investigated how phytol induced the cell cycle arrest in the S phase. Specifically, protein expression of a molecule that controls the S phase of the cell cycle was examined by a Western blot method. […] Results of Cyclin A and β-Actin are shown with a phytol treatment (Phytol(+)) and without a phytol treatment (Phytol(−)). Further, in FIG. 9(b), the result of the Western blot shown in FIG. 9(a) was subjected to background correction using an image analysis software imageJ and then subjected to a densitometry analysis to obtain a ratio of a band density of Cyclin A relative to that of β-Actin. In evaluating data, a value of Phytol(+) was calculated by taking a value of Phytol(−) as 1 and represented as a mean±standard deviation (n=5). Comparison between Phytol(−) and Phytol(+) was tested by a Tukey-Kramer method (p<0.01).

In the case of `CC(C)C/C=C/[C@@H](C)[C@H]1CC[C@H]2[C@@H]3CC=C4C[C@@H](O)CC[C@]4(C)[C@H]3CC[C@]12C` [22-dehydrocholesterol], the “growth inhibitory activity of isolated components on Jurkat cells” value (“growth inhibitory activity” below) in series [1] is “hardly inhibited the growth of the Jurkat cells”.

For `CC1=C[C@H](O)CC(C)(C)[C@H]1/C=C/C(C)=C/C=C/C(C)=C/C=C/C=C(C)/C=C/C=C(C)/C=C/C1=C(C)C[C@@H](O)CC1(C)C` [lutein], in series [1], the “growth inhibitory activity” value is on record as “significant growth inhibitory activity” and the IC50 is 22.6 µM.

For `C/C(=C\CO)CCC[C@H](C)CCC[C@H](C)CCCC(C)C` [phytol, Phytol], in series [1], the “growth inhibitory activity” value is given as “significant growth inhibitory activity” and the IC50 worked out at 12.8 µM. For the same molecule, the “growth inhibitory effect on the normal cell” value in series [2] was “does not exhibit the growth inhibitory effect”. Further, in the series with Cyclin A, the “expression of Cyclin A (band relative to β-Actin)” value is “suppressed”.
